# Test results published in US20120270237A9, “METHODS FOR THE IDENTIFICATION OF KINASE INTERACTING MOLECULES AND FOR THE PURIFICATION OF KINASE PROTEINS” (Cellzone AG, priority 2009, published 2012).
# Experiments:
# Assay in all cases: Kinobeads competition binding, HL60 cell lysate
# Design in all cases: endogenous in cells
# Conditions in all cases: 10 μM free compound
# [1] = target: T1, ULK3 (Homo sapiens, UniProt Q6PHR2)
# T1 sequence (Q6PHR2 1-472): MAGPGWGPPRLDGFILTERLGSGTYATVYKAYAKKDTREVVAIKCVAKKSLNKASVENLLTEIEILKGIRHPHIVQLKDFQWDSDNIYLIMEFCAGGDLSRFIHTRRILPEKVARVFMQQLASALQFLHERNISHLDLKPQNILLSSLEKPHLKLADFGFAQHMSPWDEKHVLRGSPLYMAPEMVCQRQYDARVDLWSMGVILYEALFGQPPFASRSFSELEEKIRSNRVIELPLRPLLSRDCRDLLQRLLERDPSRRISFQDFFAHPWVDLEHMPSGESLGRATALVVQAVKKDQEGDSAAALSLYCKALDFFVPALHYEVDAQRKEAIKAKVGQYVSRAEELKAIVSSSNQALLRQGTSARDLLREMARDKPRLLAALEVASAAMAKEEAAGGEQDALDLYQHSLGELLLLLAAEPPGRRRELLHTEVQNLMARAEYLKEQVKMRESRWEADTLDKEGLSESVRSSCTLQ
# How it was run: (§1)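 Two aliquots of HL60 cell lysate were used, one spiked with 10 μM compound and one with 0.5% DMSO, before pull-down on immobilized-compound beads (50 mg protein, 2 h, 4 °C). Bound proteins were digested and labeled with different iTRAQ reagents. Combined peptides were analysed by LC-MS/MS.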
# [2] = target: MAP3K3 (Homo sapiens, UniProt Q99759)
# MAP3K3, sequence (Q99759 whole entry): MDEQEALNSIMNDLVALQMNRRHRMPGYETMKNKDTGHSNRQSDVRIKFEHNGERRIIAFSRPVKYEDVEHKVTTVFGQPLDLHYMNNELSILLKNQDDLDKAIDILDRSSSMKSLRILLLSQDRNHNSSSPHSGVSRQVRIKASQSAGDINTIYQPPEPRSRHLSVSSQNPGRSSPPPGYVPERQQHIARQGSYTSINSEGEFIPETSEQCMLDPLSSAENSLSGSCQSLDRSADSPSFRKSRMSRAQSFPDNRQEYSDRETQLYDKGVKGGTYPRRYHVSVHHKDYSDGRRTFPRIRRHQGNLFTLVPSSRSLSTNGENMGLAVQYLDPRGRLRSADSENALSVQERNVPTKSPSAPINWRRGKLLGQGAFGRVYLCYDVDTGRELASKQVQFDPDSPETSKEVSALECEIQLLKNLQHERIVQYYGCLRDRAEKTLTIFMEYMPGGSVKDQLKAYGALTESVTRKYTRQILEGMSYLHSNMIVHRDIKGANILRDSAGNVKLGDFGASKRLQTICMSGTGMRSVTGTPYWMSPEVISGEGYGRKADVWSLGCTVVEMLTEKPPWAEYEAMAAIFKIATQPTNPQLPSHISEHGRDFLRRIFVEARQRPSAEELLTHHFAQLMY
# How it was run: as §1
# [3] = target: TGFbR1 (Homo sapiens, UniProt P36897)
# TGFbR1, sequence (P36897 34-503): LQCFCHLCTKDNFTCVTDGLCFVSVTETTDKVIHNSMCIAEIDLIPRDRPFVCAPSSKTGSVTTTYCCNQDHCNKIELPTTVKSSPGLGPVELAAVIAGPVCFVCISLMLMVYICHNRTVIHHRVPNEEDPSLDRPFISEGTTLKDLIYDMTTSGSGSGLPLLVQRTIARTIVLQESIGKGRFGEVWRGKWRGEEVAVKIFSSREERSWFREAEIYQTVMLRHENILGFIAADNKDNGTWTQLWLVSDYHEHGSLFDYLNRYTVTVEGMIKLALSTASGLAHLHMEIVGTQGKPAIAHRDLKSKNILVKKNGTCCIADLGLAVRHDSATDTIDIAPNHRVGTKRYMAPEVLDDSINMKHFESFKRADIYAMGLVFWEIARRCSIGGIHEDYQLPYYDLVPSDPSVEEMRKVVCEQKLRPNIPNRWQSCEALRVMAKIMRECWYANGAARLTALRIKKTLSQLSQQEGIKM
# How it was run: as §1
# [4] = target: T2, PKD3 (Homo sapiens, UniProt O94806)
# T2 sequence (O94806 1-890): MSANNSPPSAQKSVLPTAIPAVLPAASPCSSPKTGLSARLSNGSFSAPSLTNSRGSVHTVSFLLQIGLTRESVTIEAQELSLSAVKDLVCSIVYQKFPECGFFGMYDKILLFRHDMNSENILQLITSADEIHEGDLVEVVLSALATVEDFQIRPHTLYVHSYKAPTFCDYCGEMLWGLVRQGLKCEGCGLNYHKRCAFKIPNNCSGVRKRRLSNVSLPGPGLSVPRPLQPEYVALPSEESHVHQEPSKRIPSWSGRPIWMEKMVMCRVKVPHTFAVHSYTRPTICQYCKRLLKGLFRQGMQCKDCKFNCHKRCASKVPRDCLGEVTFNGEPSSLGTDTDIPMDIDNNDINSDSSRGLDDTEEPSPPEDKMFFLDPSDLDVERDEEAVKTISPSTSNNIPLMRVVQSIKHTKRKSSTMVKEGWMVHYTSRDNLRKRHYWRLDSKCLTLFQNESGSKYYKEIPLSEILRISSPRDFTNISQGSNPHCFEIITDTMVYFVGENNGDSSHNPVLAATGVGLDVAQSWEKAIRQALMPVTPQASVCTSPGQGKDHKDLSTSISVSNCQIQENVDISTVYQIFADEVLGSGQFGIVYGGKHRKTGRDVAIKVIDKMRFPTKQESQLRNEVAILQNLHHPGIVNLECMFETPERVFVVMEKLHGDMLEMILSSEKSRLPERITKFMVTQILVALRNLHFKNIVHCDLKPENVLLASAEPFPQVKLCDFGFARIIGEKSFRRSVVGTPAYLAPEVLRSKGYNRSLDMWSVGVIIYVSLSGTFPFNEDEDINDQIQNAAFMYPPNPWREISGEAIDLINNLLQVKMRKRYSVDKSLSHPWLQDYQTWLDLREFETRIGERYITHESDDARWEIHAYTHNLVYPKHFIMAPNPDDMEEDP
# How it was run: as §1
# [5] = target: JNK1 (Homo sapiens, UniProt P45983)
# JNK1, sequence (P45983 whole entry): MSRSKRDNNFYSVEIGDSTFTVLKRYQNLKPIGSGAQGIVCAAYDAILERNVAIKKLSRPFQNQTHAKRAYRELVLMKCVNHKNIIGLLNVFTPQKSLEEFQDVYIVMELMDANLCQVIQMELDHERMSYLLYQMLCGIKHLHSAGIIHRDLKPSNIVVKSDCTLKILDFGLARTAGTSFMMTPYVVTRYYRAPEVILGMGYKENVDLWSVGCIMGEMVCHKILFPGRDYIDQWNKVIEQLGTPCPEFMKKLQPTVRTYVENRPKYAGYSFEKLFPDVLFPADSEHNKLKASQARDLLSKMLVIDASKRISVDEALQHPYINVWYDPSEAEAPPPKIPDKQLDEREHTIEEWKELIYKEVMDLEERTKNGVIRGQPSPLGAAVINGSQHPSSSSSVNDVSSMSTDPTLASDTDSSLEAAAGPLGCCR
# How it was run: as §1
# [6] = target: YES (Homo sapiens, UniProt P07947)
# YES, sequence (P07947 whole entry): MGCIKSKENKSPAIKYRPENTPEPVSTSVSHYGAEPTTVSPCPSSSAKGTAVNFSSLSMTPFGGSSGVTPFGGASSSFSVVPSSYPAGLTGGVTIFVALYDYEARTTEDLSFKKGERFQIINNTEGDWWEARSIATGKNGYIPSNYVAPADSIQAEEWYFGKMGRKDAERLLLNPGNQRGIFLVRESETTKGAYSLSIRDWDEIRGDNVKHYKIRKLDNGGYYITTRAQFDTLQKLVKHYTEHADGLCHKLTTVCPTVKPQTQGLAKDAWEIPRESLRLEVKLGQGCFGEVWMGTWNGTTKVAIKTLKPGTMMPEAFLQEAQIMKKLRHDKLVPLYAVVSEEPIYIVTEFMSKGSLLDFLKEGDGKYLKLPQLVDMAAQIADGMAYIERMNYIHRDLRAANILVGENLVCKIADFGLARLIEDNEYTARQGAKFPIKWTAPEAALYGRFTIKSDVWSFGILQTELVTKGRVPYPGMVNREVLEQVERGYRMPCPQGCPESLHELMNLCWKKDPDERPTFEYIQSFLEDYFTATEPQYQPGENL
# How it was run: as §1
smiles,measurement,setting,value
"CS(=O)(=O)Nc1ccccc1Nc1nc(Nc2cccc(OCCN)c2)ncc1Cl [CZC31326, N-(2-(2-(3-(2-aminoethoxy)phenylamino)-5-chloropyrimidin-4-ylamino)phenyl)methanesulfonamide]",Competition %,[1],97.7%
same,inhibition at 10 µM,[2],97.6%
same,inhibition at 10 µM,[3],95.6%
same,inhibition at 10 µM,[4],96.9%
same,Competition %,[5],88.8%
same,inhibition at 10 µM,[6],91.1%
